These results are taken from a melting point compilation (Tetko et al.; mined from patent text by program, amines drawn as free bases though some values may be those of a salt).

`O=C(CCCSc1nc[nH]n1)NC/C=C\COc1cc(CN2CCCCC2)ccn1` returned a melting point of 87 to 89 °C.

As to `CCOCn1cnc2c(N)nc3ccccc3c21`, the melting point was 255 to 261 °C.

Regarding `C=CCc1cc2c(c(CC=C)c1O)CCC(=O)N2Cc1ccc(C(=O)O)cc1`, the melting point fell in the range of 242 to 246 °C.

In the case of `CC1(C)N=C(c2ccccc2)CC1c1ccncc1` (stereo not given), the melting point lay within 90 to 92 °C.

The molecule `NC(=O)NCc1ccc2c(c1)OCO2` yielded a melting point of 183 to 184 °C.

Regarding `CC(=O)Nc1ccc(-c2nnn(-c3ccc(C(F)(F)F)cc3F)c2N)cc1`, the melting point is 115 to 116 °C.

`CC(=O)N1CCN(c2c(Cl)cncc2Cl)CC1` had a melting point of 144 to 146 °C.

As for `CC(O)c1nn(Cc2ccccc2)c(=O)o1` (stereo not given), the melting point was 70 °C.

As to `N#CCC(CC#N)c1ccccc1Br`, the melting point lay in the range of 94 to 96 °C.

Consider `O=C(Nc1ccccc1C(F)(F)F)c1c(O)c2ccccc2oc1=O`, for which the melting point lay in the range of 157 to 159 °C.

Take `CC(C)(C(=O)O)c1nc2ccc(NCCCN3CCC(OC(c4ccccc4)c4ccccc4)CC3)nn2c1Cl`: the melting point was 133 to 135 °C.

Take `CNC(=O)c1cc2cc(S(N)(=O)=O)sc2s1`: the melting point is 272 to 273 °C.

As for `O=C(O)[C@H]1CCCN1C(=O)CCCc1ccccc1`, the melting point was in the range of 86 to 87.5 °C.

In turn, `Cn1c(=O)c2c(ncn2CCCN2CCC(NC(=O)c3ccc(N)cc3)CC2)n(C)c1=O` came in with a melting point of 203 to 205 °C.

For `COc1ccc(CCNC(=O)C=Cc2cccs2)cc1S(=O)(=O)NC(=S)NC(C)C`, the melting point turned out to be 96 °C.

`Cc1cc([N+](=O)[O-])c(Cl)c([N+](=O)[O-])c1S(N)(=O)=O` had a melting point of 205 to 215 °C.

For `Cc1[nH]c(C=O)c2c1-c1ccc(Cl)cc1C(c1ccccc1Cl)=NC2`, the melting point was in the range of 274 to 276 °C.

Molecule `Cc1ccc(C2=NN(c3ccccc3)C(=O)C2)cc1` displayed a melting point of 112 to 113 °C.

`C#Cc1cccc(Nc2ncnc3[nH]cc(-c4ccc(Cl)cc4)c23)c1`: the melting point fell in the range of 225 to 227 °C.

Consider `CC(CC(C)Oc1ccc(-c2ccc(C#N)cc2)cc1)Oc1ccc(-c2ccc(C#N)cc2)cc1` (stereo not given), for which the melting point was found to be 140 °C.

`CCc1cccc(CNC[C@@H](O)[C@H](Cc2cc(F)cc(F)c2)NC(=O)CC2CCCC(=O)C2)c1` (stereo not given in full): the melting point lay within 140 to 150 °C.

The molecule `CC1OC(=S)c2c(O)cccc21` (stereo not given) had a melting point of 39 to 41 °C.

Regarding `COc1cc2c(NC3=CC(=O)C(Cl)=CC3=O)ncnc2cc1OCC1CCCCO1` (stereo not given), the melting point lay within 215 to 220 °C.

`CCC1(CCCCN2CCN(c3cccc(Cl)c3)CC2)C(=O)Nc2ccc(Cl)cc21` (stereo not given): the melting point lay within 139 to 142 °C.

Molecule `c1ccc(-c2cccc3c4c([nH]c23)CCNCC4)cc1` came in with a melting point of 143 to 174 °C.

With `OCC1OC(n2c(Cl)nc3cc(Cl)c(Cl)cc32)C(F)C1O` (stereo not given), the melting point turned out to be 223 °C.

As for `CCOc1nn(Cc2ccc(OCCc3ccc(CC)cn3)cc2)cc1CCC(=O)O`, the melting point lay in the range of 89 to 90 °C.

`CCOc1ccc2nc(Cl)c(C=O)cc2c1` yielded a melting point of 163 to 164 °C.

In turn, `N#Cc1cc(N2CCCCC2)ccc1N` had a melting point of 87 to 88 °C.

For the molecule `Cc1ocnc1-c1cc(C(C)(C)C)c(O)c(C(C)(C)C)c1`, the melting point was 105 to 107 °C.

Molecule `O=c1c(Cl)c(Cl)cnn1-c1cc(-c2ccnc(Nc3cccc(Cl)c3)n2)ccn1` displayed a melting point of 238 to 240 °C.

The molecule `COc1cccc(-n2c(CC(c3ccccc3)c3c[nH]c4ccccc34)nc3ccccc3c2=O)c1` (stereo not given) registered a melting point of 160 to 164 °C.

For the molecule `COc1c(C(C)=O)c(OC2SCC(O)C(O)C2O)c(OC)c2occc12` (stereo not given), the melting point is 207 to 209 °C.

Molecule `Cc1ccc(Cl)cc1S(N)(=O)=O` gave a melting point of 142 to 145 °C.

`O=CN1CCN(c2ccc3cc(F)ccc3n2)CC1` returned a melting point of 110 to 111 °C.

Regarding `COC1C(OC(=O)NC(=O)CCl)CCC(O)(CSC)C1C1(C)OC1CC=C(C)C` (stereo not given), the melting point lay in the range of 101 to 102 °C.

For `CC(C)(C)OC(=O)Nc1c(F)cccc1OCc1ccccc1`, the melting point was in the range of 103 to 106 °C.

Molecule `CC12CC(C(F)F)C3C4CCC(=O)C=C4CCC3C1CCC2=O` (stereo not given) gave a melting point of 149 to 151 °C.

As to `Cc1ccccc1-c1cc(C#N)c(SSc2[nH]c(-c3ccccc3C)cc2C#N)[nH]1`, the melting point fell in the range of 248 to 249 °C.

Take `CC(C)(C)c1c(=O)o[n-][n+]1CCSC12CC3CC(CC(C3)C1)C2`: the melting point lay in the range of 55 to 56 °C.

Molecule `O=c1ccc(-c2ccc3c(c2)CCN(C2CCC2)CC3)n[nH]1` registered a melting point of 250 to 251 °C.

For `Cn1nc(-c2c(F)cccc2Cl)nc1-c1ccc(F)c(-c2ccc(OC(F)(F)F)cc2)c1`, the melting point was 117 to 119 °C.

`CCOC(=O)C(=O)Nc1ncccn1` had a melting point of 96 to 99 °C.

As for `CN(C)c1ccccc1CSC1=NC(SCc2ccccc2)=NC1(C)C`, the melting point is 91 to 92 °C.

In the case of `CCSC1=C(NC(=O)CN2CCN(CCSc3nc4c(C)c(Cl)cc(C(C)C)c4o3)CC2)C=CC(C)(SCC)N1` (stereo not given), the melting point lay in the range of 120 to 122 °C.

Consider `COCNC(=O)NC1CCCc2ccccc21` (stereo not given), for which the melting point is 124 to 128 °C.

In the case of `O=P(O)(c1ccccc1)c1ccc(S(=O)(=O)c2ccccc2)cc1`, the melting point was in the range of 220 to 224 °C.

`COc1ccc2c(c1)Sc1cc(N)ccc1N2C` returned a melting point of 142 to 143 °C.

Molecule `COC(=O)c1ccc(C2OC23Cc2ccccc2C3=O)cc1` (stereo not given) displayed a melting point of 160 to 163 °C.

With `Cn1c(=O)[nH]c2cc(Cl)cc(Cl)c2c1=O`, the melting point is 247 to 250 °C.

As to `O=c1c(-c2ccccc2)c(Cn2cnc3ccccc32)oc2ccc(Br)cc12`, the melting point was in the range of 192 to 197 °C.

Molecule `COc1cc(C(O)C(Cl)(Cl)Cl)cc(OC)c1O` (stereo not given) registered a melting point of 160 to 162 °C.

`Cc1ccc(CN(C(=O)C2CC2)c2nc(C)no2)cc1` returned a melting point of 49.5 to 50.5 °C.

`Cc1ccccc1-n1c(-c2sc(Nc3ccccc3)nc2-c2ccccc2)nc2ccccc2c1=O`: the melting point fell in the range of 141 to 143 °C.

In the case of `Cc1cccc(C)c1-n1cc(C#N)c(=O)[nH]c1=O`, the melting point fell in the range of 267 to 269 °C.

Take `O=C(O)c1cc(S(=O)(=O)Cl)cc(S(=O)(=O)Cl)c1O`: the melting point lay within 185 to 187 °C.

As to `CC1(C)OC(C=Cc2cccc(C#N)c2)=CC1=O`, the melting point lay within 155 to 157 °C.

`CCOCc1nc2c(N)nc3cccnc3c2n1CCCCCC(N)=O` showed a melting point of 215 to 217 °C.

`COc1ccc(NC(=O)c2ccc(COc3ccc4c(c3)CCC(CCN3CCCCC3)C4)cc2)cc1OC` (stereo not given) showed a melting point of 178 to 180 °C.

Molecule `O=C1Nc2ccccc2Sc2cscc21` registered a melting point of 215 to 216 °C.

Molecule `CN1C(=O)CCCc2cc(Nc3ncc(Cl)c(NC4CCCCC4C(N)=O)n3)ccc21` (stereo not given) returned a melting point of 251 to 253 °C.

Turning to `O=S(=O)(c1ccccc1)c1cc(Br)nc(Br)c1`, the melting point was 134 to 135 °C.

Molecule `CCCCCCCC(=O)OCOC1=C(C(=O)Nc2ccccn2)N(C)S(=O)(=O)c2ccccc21` returned a melting point of 98 to 99 °C.

As to `Cc1nc(OC(C)C)c([N+](=O)[O-])c(N2CCN(c3ccc(F)cc3)CC2)n1`, the melting point lay in the range of 98 to 100 °C.

On to `C=CCOc1ccc(C=CC(=O)N2CCN(c3nc(N)c4cc(OC)c(OC)cc4n3)CC2)cc1`, for which the melting point lay in the range of 218 to 220 °C.

For `CN(Cc1ccccc1)[C@@H](CC(N)=O)C(=O)N[C@@H](Cc1ccccc1)[C@H](O)C(=O)N1CCC[C@H]1C(=O)NC(C)(C)C`, the melting point was 97 to 100 °C.

For `Nc1cc(CCC(=O)N(c2ccccc2)c2ccccc2)ccc1O`, the melting point fell in the range of 170 to 172 °C.

The molecule `BrC/C(=C(\CBr)c1ccccc1)c1ccccc1` returned a melting point of 98 °C.

Molecule `CCCCc1nc2c(OC)ccc(CCN(C)C)c2[nH]1` returned a melting point of 116 to 122 °C.

Molecule `CCOC(=O)C1CCCc2[nH]c3c(C)ccc(OC)c3c21` (stereo not given) came in with a melting point of 119 to 122 °C.

As for `CC1(C)CC2(CC(C)(C)c3ccc(Oc4cccc(N)c4)cc32)c2cc(Oc3cccc(N)c3)ccc21`, the melting point was found to be 206 °C.

Consider `O=C(O)C(Sc1nc2cc(Cl)ccc2s1)c1ccccc1` (stereo not given), for which the melting point was 190 to 192 °C.

With `COC(CN(C)C(=O)Nc1nnc(C(C)Oc2ccc(Cl)c(Cl)c2)s1)OC` (stereo not given), the melting point is 124 to 127 °C.

Consider `CCOC(=O)C(C)(C)C(O)C(c1ccc(Cl)cc1)n1ccnc1` (stereo not given), for which the melting point lay in the range of 120 to 124 °C.

The molecule `CC(=O)NCC1CN(c2ccc(N3CCC(=C(C)C#N)C(F)C3)c(F)c2)C(=O)O1` (stereo not given) had a melting point of 148 to 150 °C.

Consider `CCCCCCCCCCOc1cnc(-c2ccc(C#CCCCC(C)O)cc2)nc1` (stereo not given), for which the melting point fell in the range of 82 to 83 °C.

As for `CCOCc1nc2c(N)nc3ccccc3c2n1CCCCS(=O)(=O)NC(C)C`, the melting point fell in the range of 146 to 147 °C.

For the molecule `CCCCN(C1CCCOc2ccccc21)S(C)(=O)=O` (stereo not given), the melting point was in the range of 78 to 79 °C.

In turn, `COC(=O)N(C1c2ccccc2-c2ccccc21)[C@H]1[C@H](C(=O)O)C[C@H]2C[C@@H]1C2(C)C` had a melting point of 155 to 157 °C.

As for `ICCCCCOc1ccc(C2=C(c3ccccc3)CCCc3cc(OC4CCCCO4)ccc32)cc1` (stereo not given), the melting point lay in the range of 109 to 111 °C.

`Cc1nc(-c2ccc(C(=O)N(C)c3ccc(Cl)cc3)cc2)sc1C(=O)O` had a melting point of 210 to 212 °C.

`CS(=O)(=O)c1ccc(-c2sc(-c3ccccc3Cl)nc2-c2ccc(Br)cc2)cc1`: the melting point lay within 168 to 184 °C.

For the molecule `COc1ncnc2c1ncn2[C@H](C)[C@](O)(Cn1cncn1)c1ccc(F)cc1F`, the melting point is 124 to 125 °C.

With `CCCCNC(=O)Cc1ccc2c(c1)c(Cc1ccc(C(=O)O)cc1OC)cn2C`, the melting point is 92 to 95 °C.

Consider `Nc1ccc(O)c(-c2cccs2)c1`, for which the melting point lay in the range of 130 to 132 °C.

Regarding `CC1CN=C2C=CC(c3cccnc3)=NN21` (stereo not given), the melting point is 104 to 105 °C.

For the molecule `Cc1[nH]c(=O)c(C#N)cc1-c1ccc(S(C)=O)cc1` (stereo not given), the melting point is 290 to 291 °C.

Turning to `O=C1C=C(c2c[nH]c3ccc(F)cc23)C(=O)N1`, the melting point was 255 to 265 °C.

In turn, `COc1ccccc1C1(N)C(=O)Nc2ccc(Cl)cc21` (stereo not given) showed a melting point of 220 to 224 °C.

As to `CCCCOc1nc(N)c2[nH]c(=O)n(CCCN(CCCN3CCOCC3)Cc3cccc(CC(=O)OC)c3)c2n1`, the melting point was found to be 153 °C.
